The values that follow come from US5629288A, “Lipopeptide derivatives, a process for their preparation and their use” (Hoechst Aktiengesellschaft, priority 1994, dated 1997).

The subject of the data set is venous blood from rhesus monkeys. Nature of the data set: Hemolytic activity in vitro (standard hemolysis test). It is filed as cell-based. The conditions noted are these: for Hemolysis (%): fresh heparinized rhesus monkey blood, 37° C., 3 hours, absorption at 540 nm, % of maximum inducible hemolysis (distilled water = 100%), dilutions 1600-3.125 mg/l, concentration behind the value not stated; for hemolysis in the standard hemolysis test (in words): rhesus monkey blood. As for the experimental part: 2) Freshly removed venous blood from rhesus monkeys is used to measure the hemolytic activity. The blood is collected in heparinized tubes and 200 μl aliquots are distributed over 12 polyethylene tubes. 200 μl of distilled water are added to one aliquot, which serves as 100% standard, and another is mixed with 200 μl of physiological saline (0.9% NaCl) (0% standard). 200 μl portions of substance dilutions in physiological saline containing 1600, 800, 400, 200, 100, 50, 25, 12.5, 6.25 and 3.125 mg/l are distributed over the other tubes. All the tubes are cautiously swirled and incubated at 37° C. for 3 hours. Subsequently 100% standard is made up with 5 ml of distilled water, and the others are each made up with 5 ml of physiological saline and centrifuged at 700 g for 5 minutes.
The hemolysis is determined by measuring the absorption of the supernatant in a spectrophotometer at a wavelength of 540 nm. The absorption of the standard with complete hemolysis (distilled water) is set equal to 100%. The absorptions of the test product dilutions and of the 0% standard are measured and reported as a percentage of the maximum inducible hemolysis.

Regarding `CCCCCCCCCCC(=O)NC(CC(=O)O)C(=O)NC1C(=O)N2CCCCC2C(=O)NC(C(C)C(=O)O)C(=O)NC(CC(=O)O)C(=O)NCC(=O)NC(CC(=O)O)C(=O)NCC(=O)NC(C(C)N)C(=O)NC(C(C)C)C(=O)N2CCCC2C(=O)NC1C` (centres unmarked) [Example 6], the “Hemolysis (%)” value is 16.5%.

`CCCCCCCCCCCCC(=O)NC(CC(=O)O)C(=O)NC1C(=O)N2CCCCC2C(=O)NC(C(C)C(=O)O)C(=O)NC(CC(=O)O)C(=O)NCC(=O)NC(CC(=O)O)C(=O)NCC(=O)NC(C(C)N)C(=O)NC(C(C)C)C(=O)N2CCCC2C(=O)NC1C` (centres unmarked) [Example 1, Tridecanoyl Derivative of A 1437 Cyclic Peptide]: the “Hemolysis (%)” value worked out at 19.6%.

For the compound `CC(C)CCCCCCCCCCC(=O)NC(CC(=O)O)C(=O)NC1C(=O)N2CCCCC2C(=O)NC(C(C)C(=O)O)C(=O)NC(CC(=O)O)C(=O)NCC(=O)NC(CC(=O)O)C(=O)NCC(=O)NC(C(C)N)C(=O)NC(C(C)C)C(=O)N2CCCC2C(=O)NC1C` (centres unmarked) [Example 14], the “Hemolysis (%)” value is reported as 22.9%.

In the case of `CC(C)C1NC(=O)C(C(C)N)NC(=O)CNC(=O)C(CC(=O)O)NC(=O)CNC(=O)C(CC(=O)O)NC(=O)C(C(C)C(=O)O)NC(=O)C2CCCCN2C(=O)C(NC(=O)C(CC(=O)O)NC(=O)c2ccc(CCc3ccc(-c4ccccc4)cc3)cc2)C(C)NC(=O)C2CCCN2C1=O` (centres unmarked) [Example 55], the “Hemolysis (%)” value is listed as 0.5% and the “hemolysis in the standard hemolysis test (in words)” value was “virtually no evidence of hemolysis”.

As for `CCCCCCCc1ccc(C(=O)NC(CC(=O)O)C(=O)NC2C(=O)N3CCCCC3C(=O)NC(C(C)C(=O)O)C(=O)NC(CC(=O)O)C(=O)NCC(=O)NC(CC(=O)O)C(=O)NCC(=O)NC(C(C)N)C(=O)NC(C(C)C)C(=O)N3CCCC3C(=O)NC2C)cc1` (centres unmarked) [Example 49], the “Hemolysis (%)” value is 0.0%.

As to `CCCCCCCCCCCCCCC(=O)NC(CC(=O)O)C(=O)NC1C(=O)N2CCCCC2C(=O)NC(C(C)C(=O)O)C(=O)NC(CC(=O)O)C(=O)NCC(=O)NC(CC(=O)O)C(=O)NCC(=O)NC(C(C)N)C(=O)NC(C(C)C)C(=O)N2CCCC2C(=O)NC1C` (centres unmarked) [Example 9], the “Hemolysis (%)” value is recorded as 22.8%.

On to `CCCCCCCCCCCCCC(=O)NC(CC(=O)O)C(=O)NC1C(=O)N2CCCCC2C(=O)NC(C(C)C(=O)O)C(=O)NC(CC(=O)O)C(=O)NCC(=O)NC(CC(=O)O)C(=O)NCC(=O)NC(C(C)N)C(=O)NC(C(C)C)C(=O)N2CCCC2C(=O)NC1C` (centres unmarked) [Example 8], for which the “Hemolysis (%)” value is 19.3%.

For `CC(C)C1NC(=O)C(C(C)N)NC(=O)CNC(=O)C(CC(=O)O)NC(=O)CNC(=O)C(CC(=O)O)NC(=O)C(C(C)C(=O)O)NC(=O)C2CCCCN2C(=O)C(NC(=O)C(CC(=O)O)NC(=O)c2ccc(CCc3ccc(CCc4ccccc4)cc3)cc2)C(C)NC(=O)C2CCCN2C1=O` (centres unmarked) [Example 56], the “Hemolysis (%)” value stood at 0.4% and the “hemolysis in the standard hemolysis test (in words)” value is recorded as “virtually no evidence of hemolysis”.

As for `CCCCCCCCCCCC(=O)NC(CC(=O)O)C(=O)NC1C(=O)N2CCCCC2C(=O)NC(C(C)C(=O)O)C(=O)NC(CC(=O)O)C(=O)NCC(=O)NC(CC(=O)O)C(=O)NCC(=O)NC(C(C)N)C(=O)NC(C(C)C)C(=O)N2CCCC2C(=O)NC1C` (centres unmarked) [Example 7], the “Hemolysis (%)” value was 25.7%.
